Measured values from patent US7468270B2, “Probiotic strains, a process for the selection of them, compositions thereof, and their use” (Puleva Biotech, S.A., priority 2003, dated 2008).

Tested on: Salmonella typhmurium and Escherichia coli
Experiment: Production of antimicrobial metabolites, agar well diffusion assay
Format: cell-based
Settings: dilution of each metabolic acid at pH 4.5; data not shown
Protocol: The probiotic strains of this invention were assessed for their capability to produce antimicrobial metabolites using an agar well diffusion assay. MRS agar plates containing 10^6 cfu/ml of different pathogenic bacteria strain (Salmonella typhmurium and Escherichia coli) were prepared. Wells, with a diameter of 5 mm, where then cut in the agar using a sterile cork-borer. Then, 50 μl of a 2 fold concentrate supernatant of each probiotic strain culture were added to the wells and allowed to diffuse into the agar during a 2 hours preincubation period at 4° C., followed by aerobic incubation of the plates at 37° C. for 16-18 hours. The antimicrobial activity of each supernatant was considered high if the diameter of the inhibition hallo for both pathogenic bacteria strains was >12, moderate between 8 and 12, and slight <8 (FIG. 11)
Moreover, it was also tested if the antimicrobial activity of the supernatants was due to a antimicrobial substance or to the production of metabolic acids. […] It was also tested the antimicrobial capabilities of supernatants obtained from bacterial cultures using glucose or lactose as a carbohydrate source.

Row | SMILES | Inhibition of growth of Salmonella or E. coli by a dilution of metabolic acid
1 | CCCC(=O)O [butyric, butyric acid] | None of these situations inhibited the growth
2 | CC(=O)O [acetic] | None of these situations inhibited the growth
